Where a name gives a salt, the structure may show the parent alone.
Legend:
[1] = system: prurigo nodularis patients; experiment: Example 2 trial: ItchyQoL total score; format: in vivo, human; settings: for Mean (SD) decrease in ItchyQoL total score from baseline to Week 10: placebo −5.45 (10.91)
Description: This clinical study was a double-blind, placebo-controlled trial in which prurigo nodularis patients were randomized in a 1:1:1 ratio to nalbuphine ER tablets to a target dose of 90 mg twice daily (BID), nalbuphine HCl ER tablets 180 mg BID, or placebo tablets BID. Use of nonsedating rescue antihistamine medications (non-first generation H1-antihistamines [Simons F E. Advances in H1-antihistamines. N Engl J Med. 2004; 351(21):2203-17.]) were allowed in the study but their use was recorded. Cleansing emollients were allowed for hygiene purposes provided there were no active substances (such as menthol or urea) contained in the lotion. A placebo comparator was chosen because there are no approved treatments for prurigo nodularis in the United States or Europe or an established standard of care that could serve as an active control.
Quality of life-related secondary endpoints included change from Day 1 to the Evaluation Period in itching-related quality of life (using the Itchy QoL) and itching-related sleep disruption (using the MOS Sleep Scale-R). The Hospital Anxiety and Depression Score (HADS) used as a general measure of anxiety and depression.
Efficacy analysis of secondary continuous endpoints was performed using a mixed model repeated ANCOVA with the main effects of treatment and site, including the baseline value for each endpoint as the covariate. The model included time (i.e. Visit) as a factor variable and treatment*time (with placebo as the reference category) with an unstructured covariance structure for repeated measures. For other secondary efficacy endpoints, the Time factor corresponded to the scheduled study visits when the assessment was obtained (Visit 3, Visit 4, and Visit 5). Data from all post-baseline visits were used to fit the model.
In the first 2 weeks of treatment, patients were blindly force-titrated to their assigned target dose, with the patients in the active arms reaching a dose of 90 mg BID (NAL 90) and, for those in the high dose group, to 180 mg BID (NAL 180) in the second week. […]

[2] = system: prurigo nodularis patients; experiment: Phase 2 open label extension study (TR03ext, Example 3), titrated 30 mg QD to 180 mg BID, up to 50 weeks: Worst itch NRS; format: in vivo, human; settings: for Worst Itch NRS Visit Mean (SD): Baseline 7.6 (1.6)
Description: (§1) This clinical study was a Phase 2 Open Label Extension Study (clinical study TR03ext) of the randomized, double-blind, 3-parallel arm, placebo controlled dose ranging study described in Example 2. All those subjects who were randomized, and then completed Example 2 study, were eligible to participate in the Extension Study.
(§2) The primary endpoint was a description of the overall incidence and nature of Treatment-Emergent AEs (TEAES) during weeks 5-50 of the study. Exploratory efficacy endpoints included Change from Baseline patient reported outcome measures of Worst itch NRS, itchy VRS and ItchyQoL, by Treatment Period study visit and Baseline NRS score. There was also an assessment of any potential skin lesion changes over time using the metrics of the PAS.
(§3) Of the 63 patients that were randomized to the study of Example 2, 36 subjects who enrolled into Extension Study entered the Treatment Period of the study and were exposed to nalbuphine HCl ER tablet administration and are the basis of the study safety population analysis.
(§4) Patients in Extension Study were titrated over a dose range of 30 mg QD to 180 mg BID based on tolerability. The selected dose range was based on Example 2 study whereby patients were titrated from a 30 mg QD dose either to 30 mg BID, 60 mg BID, 90 mg BID, 120 mg BID or a 180 mg BID dose. The highest dose proposed was 180 mg BID (360 mg daily dose), and was well below the highest recommended daily treatment of 160 mg IV (equivalent to 960 mg oral) for the current marketed parenteral administered product.
(§5) The study duration for each patient was up to 52 weeks, with up to 50 weeks on study drug. The Extension Study consisted of a Treatment Period (that was followed by a Washout Safety Follow-up Period) and an Observation Period. Patients either entered directly into a drug Treatment Period (NRS >5) or a no-drug Observation Period (NRS ≤5) based on their reported NRS scores on the first Visit (Visit 1a). For up to 12 Extended Screening weeks, patients in the no-drug Observation Period could have also transitioned into the drug Treatment Period if their NRS increased to NRS >5. All patients entering the Treatment Period, whether immediately upon study entry or following a period of time in the Observation Period, were titrated to a dose ranging between 30 mg up to 180 mg BID, the highest dose tested in Example 2.

[3] = system: prurigo nodularis patients; experiment: TR03ext (Example 3), titrated 30 mg QD to 180 mg BID: ItchyQoL Total Score; format: in vivo, human; settings: Baseline 75.2 (15.1)
Description: as §1, §2, §3, §4, §5

[4] = injectable formulations (IV or IM or SC); cited from earlier work

## Oc1ccc2c3c1OC1[C@@H](O)CC[C@@]4(O)[C@@H](C2)N(CC2CCC2)CC[C@]314 (stereo partly drawn) [Nalbuphine, 17-(cyclobutylmethyl)-4,5α-epoxymorphinian-3, 6α, 14-triol, hydrochloride]
[1]; 90 mg BID
  Mean (SD) decrease in ItchyQoL total score from baseline to Week 10: −7.79 (7.83)
[1]; 180 mg BID, Week 10, p=0.022
  ItchyQoL total score, LS mean difference versus placebo (mixed model repeated measures): −8.75
[1]; 180 mg BID
  Mean (SD) decrease in ItchyQoL total score from baseline to Week 10: −13.83 (13.45)
[2]; Study Week 3, N=34
  Worst Itch NRS Mean (SD) Change from Baseline: −2.0 (2.2)
  Worst Itch NRS Visit Mean (SD): 5.7 (2.4)
[2]; Study Week 5, N=33
  Worst Itch NRS Mean (SD) Change from Baseline: −2.5 (2.2)
  Worst Itch NRS Visit Mean (SD): 5.2 (2.5)
[2]; Study Week 9, N=30
  Worst Itch NRS Mean (SD) Change from Baseline: −2.9 (2.2)
  Worst Itch NRS Visit Mean (SD): 4.6 (2.3)
[2]; Study Week 13, N=25
  Worst Itch NRS Mean (SD) Change from Baseline: −2.7 (1.8)
  Worst Itch NRS Visit Mean (SD): 4.8 (2.2)
[2]; Study Week 17, N=25
  Worst Itch NRS Mean (SD) Change from Baseline: −3.6 (2.6)
  Worst Itch NRS Visit Mean (SD): 3.8 (2.4)
[2]; Study Week 21, N=22
  Worst Itch NRS Mean (SD) Change from Baseline: −3.3 (2.4)
  Worst Itch NRS Visit Mean (SD): 4.1 (2.4)
[2]; Study Week 26, N=21
  Worst Itch NRS Mean (SD) Change from Baseline: −3.9 (2.2)
  Worst Itch NRS Visit Mean (SD): 3.4 (1.6)
[2]; Study Week 30, N=20
  Worst Itch NRS Mean (SD) Change from Baseline: −4.2 (2.3)
  Worst Itch NRS Visit Mean (SD): 3.2 (1.6)
[2]; Study Week 34, N=18
  Worst Itch NRS Mean (SD) Change from Baseline: −3.9 (2.1)
  Worst Itch NRS Visit Mean (SD): 3.3 (1.6)
[2]; Study Week 38, N=17
  Worst Itch NRS Mean (SD) Change from Baseline: −3.9 (1.7)
  Worst Itch NRS Visit Mean (SD): 3.2 (1.6)
[2]; Study Week 42, N=17
  Worst Itch NRS Mean (SD) Change from Baseline: −3.9 (1.4)
  Worst Itch NRS Visit Mean (SD): 3.2 (1.4)
[2]; Study Week 46, N=17
  Worst Itch NRS Mean (SD) Change from Baseline: −3.9 (1.3)
  Worst Itch NRS Visit Mean (SD): 3.2 (1.5)
[2]; Study Week 50, N=15
  Worst Itch NRS Mean (SD) Change from Baseline: −4.3 (1.3)
  Worst Itch NRS Visit Mean (SD): 2.9 (1.7)
[3]; Study Week 3, N=33
  ItchyQoL Total Score Visit Mean (SD): 70.3 (18.7)
[3]; Study Week 5, N=31
  ItchyQoL Total Score Visit Mean (SD): 67.8 (19.0)
[3]; Study Week 9, N=28
  ItchyQoL Total Score Visit Mean (SD): 65.8 (18.5)
[3]; Study Week 13, N=24
  ItchyQoL Total Score Visit Mean (SD): 65.7 (17.4)
[3]; Study Week 17, N=24
  ItchyQoL Total Score Visit Mean (SD): 63.5 (19.4)
[3]; Study Week 21, N=21
  ItchyQoL Total Score Visit Mean (SD): 62.6 (18.0)
[3]; Study Week 26, N=20
  ItchyQoL Total Score Visit Mean (SD): 59.4 (16.8)
[3]; Study Week 30, N=19
  ItchyQoL Total Score Visit Mean (SD): 60.8 (18.9)
[3]; Study Week 34, N=17
  ItchyQoL Total Score Visit Mean (SD): 62.2 (15.2)
[3]; Study Week 38, N=16
  ItchyQoL Total Score Visit Mean (SD): 61.9 (16.1)
[3]; Study Week 42, N=16
  ItchyQoL Total Score Visit Mean (SD): 63.4 (15.3)
[3]; Study Week 46, N=16
  ItchyQoL Total Score Visit Mean (SD): 62.4 (14.1)
[3]; Study Week 50, N=14
  ItchyQoL Total Score Visit Mean (SD): 63.3 (15.9)
[4]
  half-life: 2 to 3 h

— patent US20220347171A1, “TREATMENT OF PRURIGO NODULARIS” (TREVI THERAPEUTICS, INC., priority 2016, published 2022)
